Measurements reported in PubChem BioAssay (NCI).
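Five concentrations, 48 hours, 96-well plates. TGI denotes the concentration required for complete inhibition of growth.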

What was measured:
Experiment in all cases: NCI tumour cell line growth inhibition, 48 h
MDA-MB-435 = system: MDA-MB-435
HT29 colon = system: HT29 colon
MDA-MB-231 breast = system: MDA-MB-231 breast
MDA-N = system: MDA-N
K-562 leukemia = system: K-562 leukemia
CAKI-1 renal = system: CAKI-1 renal
HOP-92 NSCLC = system: HOP-92 NSCLC
COLO 205 colon = system: COLO 205 colon
HOP-62 NSCLC = system: HOP-62 NSCLC
OVCAR-4 ovarian = system: OVCAR-4 ovarian
A549 NSCLC = system: A549 NSCLC
DU-145 prostate = system: DU-145 prostate
ACHN renal = system: ACHN renal
KM12 colon = system: KM12 colon
A498 renal = system: A498 renal
SF-268 CNS = system: SF-268 CNS
OVCAR-5 ovarian = system: OVCAR-5 ovarian
BT-549 breast = system: BT-549 breast
NCI-H226 lung = system: NCI-H226 lung
NCI-H460 lung = system: NCI-H460 lung
HS 578T breast = system: HS 578T breast
SF-539 CNS = system: SF-539 CNS
UACC-62 melanoma = system: UACC-62 melanoma
TK-10 renal = system: TK-10 renal
RXF 393 renal = system: RXF 393 renal
SW-620 colon = system: SW-620 colon
UACC-257 melanoma = system: UACC-257 melanoma
M14 melanoma = system: M14 melanoma
UO-31 renal = system: UO-31 renal
NCI-H23 lung = system: NCI-H23 lung
SNB-19 CNS = system: SNB-19 CNS
SK-MEL-5 melanoma = system: SK-MEL-5 melanoma
SK-MEL-2 melanoma = system: SK-MEL-2 melanoma
SF-295 CNS = system: SF-295 CNS
SK-OV-3 ovarian = system: SK-OV-3 ovarian
CCRF-CEM leukemia = system: CCRF-CEM leukemia
U251 CNS = system: U251 CNS
HCT-15 colon = system: HCT-15 colon
HL-60(TB) leukemia = system: HL-60(TB) leukemia
NCI-H522 lung = system: NCI-H522 lung
LOX IMVI melanoma = system: LOX IMVI melanoma
T-47D breast = system: T-47D breast
HCC-2998 colon = system: HCC-2998 colon
SK-MEL-28 melanoma = system: SK-MEL-28 melanoma
IGROV1 ovarian = system: IGROV1 ovarian
SNB-75 CNS = system: SNB-75 CNS
EKVX NSCLC = system: EKVX NSCLC
SN12C renal = system: SN12C renal
MALME-3M melanoma = system: MALME-3M melanoma
HCT-116 colon = system: HCT-116 colon
786-0 renal = system: 786-0 renal
MCF7 breast = system: MCF7 breast
MOLT-4 leukemia = system: MOLT-4 leukemia
OVCAR-3 ovarian = system: OVCAR-3 ovarian
RPMI-8226 leukemia = system: RPMI-8226 leukemia
OVCAR-8 ovarian = system: OVCAR-8 ovarian
SR leukemia = system: SR leukemia
PC-3 prostate = system: PC-3 prostate
NCI/ADR-RES ovarian = system: NCI/ADR-RES ovarian

CC1(C)[C@H]2CC[C@]1(C)[C@H](OC(=O)NNC(=O)O[C@@H]1C[C@@H]3CC[C@@]1(C)C3(C)C)C2
TGI (MDA-MB-435): 64.4 µM | TGI (HT29 colon): 20.9 µM | TGI (MDA-MB-231 breast): 27.6 µM | TGI (MDA-N): 24.8 µM | TGI (K-562 leukemia): 17 µM | TGI (CAKI-1 renal): 28.8 µM | TGI (HOP-92 NSCLC): 33.6 µM | TGI (COLO 205 colon): 25.6 µM | TGI (HOP-62 NSCLC): 29.5 µM | TGI (OVCAR-4 ovarian): 24.1 µM | TGI (A549 NSCLC): 25.1 µM | TGI (DU-145 prostate): 32.7 µM | TGI (ACHN renal): 36.7 µM | TGI (KM12 colon): 37.3 µM | TGI (A498 renal): 33.8 µM | TGI (SF-268 CNS): 33.1 µM | TGI (OVCAR-5 ovarian): 34.1 µM | TGI (BT-549 breast): 42.9 µM | TGI (NCI-H226 lung): 34.1 µM | TGI (NCI-H460 lung): 28.6 µM | TGI (HS 578T breast): 36.6 µM | TGI (SF-539 CNS): 29.9 µM | TGI (UACC-62 melanoma): 38.8 µM | TGI (TK-10 renal): 38.6 µM | TGI (RXF 393 renal): 24.7 µM | TGI (SW-620 colon): 72.9 µM | TGI (UACC-257 melanoma): 33 µM | TGI (M14 melanoma): 35.6 µM | TGI (UO-31 renal): 29.2 µM | TGI (NCI-H23 lung): 34.9 µM | TGI (SNB-19 CNS): 39.1 µM | TGI (SK-MEL-5 melanoma): 25.5 µM | TGI (SK-MEL-2 melanoma): 32.5 µM | TGI (SF-295 CNS): 28.8 µM | TGI (SK-OV-3 ovarian): 28.6 µM | TGI (CCRF-CEM leukemia): 76.6 µM | TGI (U251 CNS): 62.9 µM | TGI (HCT-15 colon): 27.5 µM | TGI (HL-60(TB) leukemia): 62.7 µM | TGI (NCI-H522 lung): 30.7 µM | TGI (LOX IMVI melanoma): > 100 µM | TGI (T-47D breast): 23 µM | TGI (HCC-2998 colon): 27.7 µM | TGI (SK-MEL-28 melanoma): > 100 µM | TGI (IGROV1 ovarian): 30.4 µM | TGI (SNB-75 CNS): 28.1 µM | TGI (EKVX NSCLC): 31.2 µM | TGI (SN12C renal): 24.7 µM | TGI (MALME-3M melanoma): 33.8 µM | TGI (HCT-116 colon): 34.5 µM | TGI (786-0 renal): 50.3 µM | TGI (MCF7 breast): 26.4 µM | TGI (MOLT-4 leukemia): 27.3 µM | TGI (OVCAR-3 ovarian): 25.6 µM | TGI (RPMI-8226 leukemia): 30.7 µM

COc1ccc(C(SC2C(O)C(CO)OC2n2ccc(N)nc2=O)(c2ccccc2)c2ccc(OC)cc2)cc1 (stereo not drawn)
TGI (MDA-MB-435): 28.2 µM | TGI (HT29 colon): 36.2 µM | TGI (MDA-MB-231 breast): 30.8 µM | TGI (MDA-N): 24.2 µM | TGI (OVCAR-8 ovarian): > 100 µM | TGI (K-562 leukemia): 88.3 µM | TGI (CAKI-1 renal): > 100 µM | TGI (HOP-92 NSCLC): 37.3 µM | TGI (COLO 205 colon): 28.7 µM | TGI (HOP-62 NSCLC): 40.5 µM | TGI (OVCAR-4 ovarian): 78.2 µM | TGI (A549 NSCLC): 54.2 µM | TGI (DU-145 prostate): 39.4 µM | TGI (ACHN renal): > 100 µM | TGI (SR leukemia): 58 µM | TGI (KM12 colon): 71.2 µM | TGI (SF-268 CNS): 39.5 µM | TGI (OVCAR-5 ovarian): 50.8 µM | TGI (PC-3 prostate): 41.1 µM | TGI (BT-549 breast): 43 µM | TGI (NCI-H226 lung): 28.3 µM | TGI (NCI-H460 lung): 27.2 µM | TGI (HS 578T breast): 48.1 µM | TGI (SF-539 CNS): 36.3 µM | TGI (UACC-62 melanoma): 33 µM | TGI (TK-10 renal): 66.2 µM | TGI (RXF 393 renal): 31.5 µM | TGI (SW-620 colon): > 100 µM | TGI (UACC-257 melanoma): 41.7 µM | TGI (M14 melanoma): 27.9 µM | TGI (NCI/ADR-RES ovarian): 60 µM | TGI (UO-31 renal): 42.8 µM | TGI (NCI-H23 lung): 57.6 µM | TGI (SNB-19 CNS): 64.4 µM | TGI (SK-MEL-5 melanoma): 25.6 µM | TGI (SK-MEL-2 melanoma): 33 µM | TGI (SF-295 CNS): 49.8 µM | TGI (SK-OV-3 ovarian): 56.1 µM | TGI (CCRF-CEM leukemia): > 100 µM | TGI (U251 CNS): 33 µM | TGI (HCT-15 colon): 46.2 µM | TGI (HL-60(TB) leukemia): 69.4 µM | TGI (NCI-H522 lung): 31.2 µM | TGI (LOX IMVI melanoma): 33.1 µM | TGI (T-47D breast): 47.4 µM | TGI (HCC-2998 colon): 32.6 µM | TGI (SK-MEL-28 melanoma): 75.6 µM | TGI (IGROV1 ovarian): 67 µM | TGI (SNB-75 CNS): 46.6 µM | TGI (EKVX NSCLC): 50.4 µM | TGI (SN12C renal): 27.5 µM | TGI (MALME-3M melanoma): 28.3 µM | TGI (HCT-116 colon): 29.4 µM | TGI (786-0 renal): 30.8 µM | TGI (MCF7 breast): 50.6 µM | TGI (MOLT-4 leukemia): > 100 µM | TGI (OVCAR-3 ovarian): 48.5 µM | TGI (RPMI-8226 leukemia): 59.3 µM
